According to patent US20050009913A1, “Method for inactivating bacteria and leukocytes in thrombocyte suspensions” (priority 2001, published 2005):

Columns and labels:
[1] = tested on: Pseudomonas aeroginosa; assay: Photoinactivation of Pseudomonas aeroginosa in TC (colony forming assay); type: cell-based; conditions: 1 mM delta-Ala
Procedure: (§1) In the experiments described, TC was used which had been obtained from the buffy coats of donor blood and which was suspended in plasma or in a conventional storage medium (T-sol) with approximately 40% plasma. A system fitted with xenon lamps and in which the emitted UV fraction was masked out by a window glass filter was used for the exposure. Staphylococcus (S.) epidermidis was generally used as the test bacterium. Bacteria titres were determined using a colony forming assay. These are given in “colony forming units per ml” (CFU/ml).
(§2) In the experiments on the inactivation of bacteria TC aliquots of respectively 60 ml located in PVC storage bags having a nominal volume of 500 ml were treated. After adding delta-Ala or the methyl ester of delta-Ala (see Table 1) the samples were pre-incubated for one hour at room temperature in the thrombocyte rotator and then exposed to light. In the experiments on the inactivation of leukocytes the samples were pre-incubated overnight (i.e., for approximately 16-20 h) or for 4 hours. The light energy deposited in the samples is given in kilojoules per m^2 (kJ/m^2). 3000 kJ/m^2 corresponds to an exposure time of about one hour. Each experiment was carried out at least twice.

[2] = tested on: S. epidermidis; assay: Photoinactivation of S. epidermidis in TC (colony forming assay); type: cell-based, Staphylococcus epidermidis; conditions: for Bacteria titre after light, Exp. 1 / Bacteria titre after light, Exp. 2: compound 2 mM, light energy input 3000 kJ/m^2
Procedure: as §1, §2
In order to determine the quantity of light sufficient to largely inactivate S. epidermidis, i.e., by at least 2 log10 grades, the following experiments were carried out: 1000 to 1500 CFU/ml S. epidermidis was added to TC, either in storage medium having a plasma content of approximately 40% or in plasma; delta-Ala was then added in a concentration of 0.25 mM (plasma-reduced TC) or 1 mM (TC with approximately 100% plasma). After pre-incubating for one hour at room temperature, the samples were exposed to different amounts of light. The results are plotted in FIGS. 3 and 4.

[3] = tested on: Serratia marescens; assay: Photoinactivation of Serratia marescens in TC (colony forming assay); type: cell-based; conditions: 1 mM delta-Ala
Procedure: as §1, §2

[4] = tested on: Enterobacter cloacae; assay: Photoinactivation of Enterobacter cloacae in TC (colony forming assay); type: cell-based; conditions: 1 mM delta-Ala
Procedure: as §1, §2

[5] = tested on: Staphylococcus aureus; assay: Photoinactivation of Staphylococcus aureus in TC (colony forming assay); type: cell-based; conditions: 1 mM delta-Ala
Procedure: as §1, §2

[6] = tested on: Escherichia coli; assay: Photoinactivation of Escherichia coli in TC (colony forming assay); type: cell-based; conditions: 1 mM delta-Ala
Procedure: as §1, §2

[7] = tested on: T lymphocytes; assay: Photoinactivation of T lymphocytes in TC (Con A proliferation assay, BRDU incorporation); type: cell-based; conditions: pre-incubation approx. 16 h, light energy input 2000 kJ/m^2 (FIG. 5)
Procedure: as §2

[8] = tested on: thrombocytes; assay: Functional in-vitro properties of TC after delta-Ala and exposure to light (hypotonic shock reaction, collagen-induced aggregation); type: cell-based; conditions: after treatment with delta-Ala and subsequent exposure to light
[9] = tested on: Yersinia enterocolitica; assay: Photoinactivation of Yersinia enterocolitica in TC (colony forming assay); type: cell-based; conditions: 1 mM delta-Ala
Procedure: as §1, §2

[10] = after exposure, 1500 kJ/m^2, average of two experiments
[11] = before exposure, average of two experiments

NCC(=O)CCC(=O)O [Delta-Ala, 6-aminolevulinic acid]
Bacteria titre after exposure [1, 10]: 1 CFU/ml
Bacteria titre before exposure [1, 11]: 700 CFU/ml
Bacteria titre after light, Exp. 1 ([2]; TC in 100% plasma): 5 CFU/ml
Bacteria titre after light, Exp. 2 ([2]; TC in 100% plasma): 3.5 CFU/ml
Bacteria titre after exposure ([2]; TC, 1 mM delta-Ala, after exposure, 1500 kJ/m^2, average of two experiments): 2 CFU/ml
Bacteria titre before exposure ([2]; TC, 1 mM delta-Ala, before exposure, average of two experiments): 2440 CFU/ml
delta-Ala concentration sufficient for inactivation ([2]; plasma-reduced TC, light energy input 3000 kJ/m^2 (FIG. 2)): ≤ 0.1 mM
Light energy to be irradiated for extensive inactivation of the bacteria ([2]; thrombocytes suspended in 100% plasma, 1 mM delta-Ala, pre-incubation one hour (FIG. 4)): approximately 3000 kJ/m^2
Bacteria titre after exposure [3, 10]: 1 CFU/ml
Bacteria titre before exposure [3, 11]: 2500 CFU/ml
Reduction of infectious titre ([4]; 1500 kJ/m^2): approximately 95%
Bacteria titre after exposure [4, 10]: 1280 CFU/ml
Bacteria titre before exposure [4, 11]: 24500 CFU/ml
Reduction of infectious titre ([5]; 1500 kJ/m^2): ~97%
Bacteria titre after exposure [5, 10]: 51 CFU/ml
Bacteria titre before exposure [5, 11]: 2000 CFU/ml
Bacteria titre after exposure [6, 10]: 3 CFU/ml
Bacteria titre before exposure [6, 11]: 11300 CFU/ml
Required concentration of delta-Ala for photoinactivation of T lymphocytes [7]: higher than 1 mM
Functional in-vitro properties of TC and other thrombocyte parameters after treatment [8]: had not changed
Bacteria titre after exposure [9, 10]: 1 CFU/ml
Bacteria titre before exposure [9, 11]: 4650 CFU/ml

COC(=O)CCC(=O)CN [Methyl-Ala, delta-Ala methyl ester]
Efficacy of inactivation of S. epidermidis compared with delta-Ala ([2]; TC in 100% plasma, 2 mM, 3000 kJ/m^2 (Table 1)): the same efficacy
Bacteria titre after light, Exp. 1 ([2]; TC in 100% plasma): 1.5 CFU/ml
Bacteria titre after light, Exp. 2 ([2]; TC in 100% plasma): 4 CFU/ml
